Laboratory results: patent US20150065499A1, “3-AMINOTHIENO[3,2-c]QUINOLINE DERIVATIVES, METHODS OF PREPARATION AND USES” (TEMPLE UNIVERSITY - OF THE COMMONWEALTH SYSTEM OF HIGHER …, priority 2012, published 2015)
Read-outs that look alike come from different tables or passages of the source.

Assays:
[1] = test system: K562 (chronic myelogenous leukemia; leukemia cell line +ve for Bcr-Abl); assay: Cancer cell assay, K562 tumor cells, viable cells after 96 hours; format: cell-based; conditions: Homo sapiens, 96 hours after treatment, called IC50
Experimental: (§1) The effect of the compounds of the invention on tumor cells was determined by the assay described by Latham et al., Oncogene 12:827-837 (1996). Tumor cells K562 (chronic myelogenous leukemia; leukemia cell line +ve for Bcr-Abl) or DU145 (prostate cancer) were plated in 12-well dishes at a cell density of 2.5×10^4 cells well. The plated cells were treated 24 hours later with a compound of the invention dissolved in DMSO at multiple concentrations ranging from 0.01 μM to 100 μM. The plates were examined 96 hours later under an inverted microscope, Olympus CK-2 using a 10× objective, and compound activity was noted by physical observation. When necessary, the total number of viable cells was determined by trypsinizing the wells and counting the number of viable cells, as determined by trypan blue exclusion, using a hemacytometer.

[2] = test system: DU145 (prostate cancer); assay: Cancer cell assay, DU145 tumor cells, viable cells after 96 hours; format: cell-based; conditions: Homo sapiens, DU-145, 96 hours after treatment, called IC50
Experimental: as §1

[3] = target: T1, Human PI3Kδ (p110δ/p85α) (Homo sapiens, UniProt O00329); assay: PI3K isoform HTRF enzyme assay, PI3Kδ; format: biochemical; conditions: for IC50: 10 μM PIP2, 10 μM ATP, HTRF, read-out: IC50 against PI3Kδ
T1 construct: N-terminal GST tagged recombinant full-length human p110δ; GST (N); host or cells: Baculovirus infected Sf9 cells
T1 sequence (O00329 whole entry, canonical isoform): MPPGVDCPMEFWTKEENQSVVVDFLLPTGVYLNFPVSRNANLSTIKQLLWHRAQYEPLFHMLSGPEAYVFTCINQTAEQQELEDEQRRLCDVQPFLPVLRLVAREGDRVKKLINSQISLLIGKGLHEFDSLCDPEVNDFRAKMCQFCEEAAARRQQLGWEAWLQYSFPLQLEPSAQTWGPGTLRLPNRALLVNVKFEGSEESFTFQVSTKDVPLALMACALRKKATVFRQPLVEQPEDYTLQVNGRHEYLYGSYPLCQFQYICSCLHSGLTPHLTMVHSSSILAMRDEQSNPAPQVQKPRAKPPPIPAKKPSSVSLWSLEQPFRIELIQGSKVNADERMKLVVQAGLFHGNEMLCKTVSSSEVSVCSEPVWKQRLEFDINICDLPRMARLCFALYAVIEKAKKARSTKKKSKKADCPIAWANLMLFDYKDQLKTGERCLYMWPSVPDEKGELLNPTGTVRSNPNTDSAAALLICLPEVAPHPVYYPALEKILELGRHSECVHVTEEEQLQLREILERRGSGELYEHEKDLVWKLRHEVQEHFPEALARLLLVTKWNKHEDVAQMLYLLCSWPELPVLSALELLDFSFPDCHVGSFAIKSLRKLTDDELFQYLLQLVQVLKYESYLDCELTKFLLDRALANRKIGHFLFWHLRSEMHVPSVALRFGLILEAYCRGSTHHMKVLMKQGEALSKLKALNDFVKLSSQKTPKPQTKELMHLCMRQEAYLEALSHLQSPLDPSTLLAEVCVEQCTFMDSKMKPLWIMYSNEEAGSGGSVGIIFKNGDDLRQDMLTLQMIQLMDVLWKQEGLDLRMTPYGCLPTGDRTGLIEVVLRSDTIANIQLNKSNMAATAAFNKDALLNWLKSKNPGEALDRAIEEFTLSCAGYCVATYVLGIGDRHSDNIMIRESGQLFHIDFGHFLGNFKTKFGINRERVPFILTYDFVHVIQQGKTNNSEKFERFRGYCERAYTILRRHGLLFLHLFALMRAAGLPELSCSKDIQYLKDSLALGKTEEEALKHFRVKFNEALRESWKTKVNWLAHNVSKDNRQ
T1 sequence (P27986 whole entry partner, canonical isoform): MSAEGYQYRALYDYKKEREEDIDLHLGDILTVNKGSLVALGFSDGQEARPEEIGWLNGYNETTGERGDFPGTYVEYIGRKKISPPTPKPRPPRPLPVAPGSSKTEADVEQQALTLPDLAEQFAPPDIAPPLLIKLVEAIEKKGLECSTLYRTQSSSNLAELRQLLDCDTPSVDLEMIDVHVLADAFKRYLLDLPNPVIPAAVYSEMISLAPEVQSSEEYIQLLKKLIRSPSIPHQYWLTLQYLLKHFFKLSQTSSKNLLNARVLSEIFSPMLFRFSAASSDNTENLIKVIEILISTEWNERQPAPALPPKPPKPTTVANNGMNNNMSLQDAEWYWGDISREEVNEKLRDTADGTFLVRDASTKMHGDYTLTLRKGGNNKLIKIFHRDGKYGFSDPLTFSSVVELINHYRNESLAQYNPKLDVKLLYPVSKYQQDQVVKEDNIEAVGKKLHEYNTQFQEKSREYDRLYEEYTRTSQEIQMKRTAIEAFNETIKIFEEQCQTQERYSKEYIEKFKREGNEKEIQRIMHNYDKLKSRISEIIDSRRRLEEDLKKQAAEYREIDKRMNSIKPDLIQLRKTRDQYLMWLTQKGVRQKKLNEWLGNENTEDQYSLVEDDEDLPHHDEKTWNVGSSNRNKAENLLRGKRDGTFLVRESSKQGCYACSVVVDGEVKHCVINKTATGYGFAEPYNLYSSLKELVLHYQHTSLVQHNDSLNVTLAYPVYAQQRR
Experimental: (§2) The compound of Example 18, methyl 3-(4-fluorobenzamido)-7,8-dimethoxythieno[3,2-c]quinoline-2-carboxylate, was tested for ability to inhibit the four PI3K isoforms PI3Kα, PI3Kβ, PI3Kδ and PI3Kγ in a homogeneous time-resolved fluorescence (HTRF) enzyme assay.
(§3) The assay relies on the action of the aforesaid kinases on the substrate phosphatidylinositol (4,5)-bisphosphate (PIP2), providing the product phosphatidylinositol (3,4,5)-trisphosphate (PIP3). The PIP3 product is detected by displacement of biotin-PIP3 from an energy transfer complex consisting of Europium labeled anti-GST monoclonal antibody, a GST-tagged pleckstrin homology (PH) domain, biotinylated PIP3 and Streptavidin-Allophycocyanin (APC). Excitation of Europium in the complex results in an energy transfer to the APC and a fluorescent emission at 665 nm. The PIP3 product formed by PI 3-kinase(h) activity displaces biotin-PIP3 from the complex resulting in a loss of energy transfer and thus a decrease in signal. […]
(§4) The enzymes (PI3Kα, PI3Kβ, PI3Kδ or PI3Kγ) were delivered into the following kinase reaction buffer containing 10 μM PIP2 substrate: HEPES 50 mM (pH7.0), NaN3 0.02%, BSA 0.01%, Orthovanadate 0.1 mM, 1% DMSO. […] Homogeneous time-resolved fluorescence (HTRF) was measured (Ex=320 nm, ratio of Em=615 nm and Em=665 nm). […]

[4] = target: T2, Human PI3Kγ (p120γ) (Homo sapiens, UniProt P48736); assay: PI3K isoform HTRF enzyme assay, PI3Kγ; format: biochemical
T2 construct: His (N); host or cells: Baculovirus infected insect cells (printed 'SP)', probably a misprint of Sf9)
T2 sequence (P48736 whole entry, canonical isoform): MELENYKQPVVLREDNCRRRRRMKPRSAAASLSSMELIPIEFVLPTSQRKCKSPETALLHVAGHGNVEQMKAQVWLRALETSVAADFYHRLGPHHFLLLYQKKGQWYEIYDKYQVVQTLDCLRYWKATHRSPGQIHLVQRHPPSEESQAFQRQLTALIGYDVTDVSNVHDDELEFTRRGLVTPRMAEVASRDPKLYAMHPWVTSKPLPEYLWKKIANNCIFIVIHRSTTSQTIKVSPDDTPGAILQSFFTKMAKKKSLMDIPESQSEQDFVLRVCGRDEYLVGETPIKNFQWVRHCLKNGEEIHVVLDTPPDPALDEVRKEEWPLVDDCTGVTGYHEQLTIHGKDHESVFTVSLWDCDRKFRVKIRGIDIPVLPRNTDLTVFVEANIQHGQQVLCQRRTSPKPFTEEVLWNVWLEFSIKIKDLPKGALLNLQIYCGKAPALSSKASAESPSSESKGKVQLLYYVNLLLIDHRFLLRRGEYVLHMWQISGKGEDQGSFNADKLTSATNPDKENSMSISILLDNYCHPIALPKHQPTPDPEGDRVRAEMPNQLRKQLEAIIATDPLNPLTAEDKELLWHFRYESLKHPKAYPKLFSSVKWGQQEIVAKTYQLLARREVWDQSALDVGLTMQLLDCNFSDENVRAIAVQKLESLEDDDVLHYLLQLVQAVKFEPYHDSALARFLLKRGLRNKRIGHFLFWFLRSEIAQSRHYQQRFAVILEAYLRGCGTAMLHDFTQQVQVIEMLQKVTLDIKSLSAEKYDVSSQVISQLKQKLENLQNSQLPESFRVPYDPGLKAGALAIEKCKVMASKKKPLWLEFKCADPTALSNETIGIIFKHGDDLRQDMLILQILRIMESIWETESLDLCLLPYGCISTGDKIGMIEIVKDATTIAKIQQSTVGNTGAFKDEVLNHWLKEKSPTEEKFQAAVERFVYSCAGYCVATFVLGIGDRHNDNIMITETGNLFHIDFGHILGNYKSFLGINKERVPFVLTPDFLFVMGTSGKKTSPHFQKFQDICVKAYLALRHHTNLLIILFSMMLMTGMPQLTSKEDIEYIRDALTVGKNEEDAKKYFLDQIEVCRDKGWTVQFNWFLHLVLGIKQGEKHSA
Experimental: as §2, §3, §4

[5] = target: T3, Human PI3Kβ (p110β/p85α) (Homo sapiens, UniProt P42338); assay: PI3K isoform HTRF enzyme assay, PI3Kβ; format: biochemical
T3 construct: N-terminal 6His-tagged recombinant full-length human p110β; 6His (N); host or cells: Baculovirus infected Sf21 cells
T3 sequence (P42338 whole entry, canonical isoform): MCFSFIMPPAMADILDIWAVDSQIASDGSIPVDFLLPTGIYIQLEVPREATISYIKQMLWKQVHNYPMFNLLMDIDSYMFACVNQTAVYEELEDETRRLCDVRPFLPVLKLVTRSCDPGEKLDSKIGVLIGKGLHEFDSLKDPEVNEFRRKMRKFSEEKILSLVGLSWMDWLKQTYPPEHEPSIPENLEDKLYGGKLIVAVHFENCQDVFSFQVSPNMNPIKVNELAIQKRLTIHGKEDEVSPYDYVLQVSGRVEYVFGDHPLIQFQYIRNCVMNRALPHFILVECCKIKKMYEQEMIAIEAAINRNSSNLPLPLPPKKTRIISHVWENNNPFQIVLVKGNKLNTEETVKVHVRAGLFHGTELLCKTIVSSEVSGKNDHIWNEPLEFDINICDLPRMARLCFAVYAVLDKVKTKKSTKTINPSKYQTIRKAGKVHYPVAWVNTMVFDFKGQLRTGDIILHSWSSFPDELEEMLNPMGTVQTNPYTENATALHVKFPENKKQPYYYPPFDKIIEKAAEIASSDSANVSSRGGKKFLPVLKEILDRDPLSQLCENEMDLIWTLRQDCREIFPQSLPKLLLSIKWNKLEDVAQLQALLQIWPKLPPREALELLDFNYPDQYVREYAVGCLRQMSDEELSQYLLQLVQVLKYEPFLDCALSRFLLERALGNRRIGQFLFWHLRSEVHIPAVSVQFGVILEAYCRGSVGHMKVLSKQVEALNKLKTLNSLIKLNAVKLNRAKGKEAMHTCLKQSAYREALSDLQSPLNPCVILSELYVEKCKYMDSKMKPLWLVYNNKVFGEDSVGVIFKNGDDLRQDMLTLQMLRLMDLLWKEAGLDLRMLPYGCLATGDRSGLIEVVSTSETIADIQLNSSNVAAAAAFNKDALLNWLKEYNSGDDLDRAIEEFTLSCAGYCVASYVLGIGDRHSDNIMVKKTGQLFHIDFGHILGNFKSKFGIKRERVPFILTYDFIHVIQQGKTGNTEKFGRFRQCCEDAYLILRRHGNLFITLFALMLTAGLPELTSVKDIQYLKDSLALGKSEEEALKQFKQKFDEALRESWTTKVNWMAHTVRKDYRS
T3 sequence (P27986 whole entry partner, canonical isoform): as the sequence (P27986 whole entry partner, canonical isoform) above
Experimental: as §2, §3, §4

[6] = target: T4, Human PI3Kα (p110α/p85α) (Homo sapiens, UniProt P42336); assay: PI3K isoform HTRF enzyme assay, PI3Kα; format: biochemical
T4 construct: N-terminal GST-tagged recombinant full-length human p110α; GST (N); host or cells: Baculovirus infected Sf9 cells
T4 sequence (P42336 whole entry, canonical isoform): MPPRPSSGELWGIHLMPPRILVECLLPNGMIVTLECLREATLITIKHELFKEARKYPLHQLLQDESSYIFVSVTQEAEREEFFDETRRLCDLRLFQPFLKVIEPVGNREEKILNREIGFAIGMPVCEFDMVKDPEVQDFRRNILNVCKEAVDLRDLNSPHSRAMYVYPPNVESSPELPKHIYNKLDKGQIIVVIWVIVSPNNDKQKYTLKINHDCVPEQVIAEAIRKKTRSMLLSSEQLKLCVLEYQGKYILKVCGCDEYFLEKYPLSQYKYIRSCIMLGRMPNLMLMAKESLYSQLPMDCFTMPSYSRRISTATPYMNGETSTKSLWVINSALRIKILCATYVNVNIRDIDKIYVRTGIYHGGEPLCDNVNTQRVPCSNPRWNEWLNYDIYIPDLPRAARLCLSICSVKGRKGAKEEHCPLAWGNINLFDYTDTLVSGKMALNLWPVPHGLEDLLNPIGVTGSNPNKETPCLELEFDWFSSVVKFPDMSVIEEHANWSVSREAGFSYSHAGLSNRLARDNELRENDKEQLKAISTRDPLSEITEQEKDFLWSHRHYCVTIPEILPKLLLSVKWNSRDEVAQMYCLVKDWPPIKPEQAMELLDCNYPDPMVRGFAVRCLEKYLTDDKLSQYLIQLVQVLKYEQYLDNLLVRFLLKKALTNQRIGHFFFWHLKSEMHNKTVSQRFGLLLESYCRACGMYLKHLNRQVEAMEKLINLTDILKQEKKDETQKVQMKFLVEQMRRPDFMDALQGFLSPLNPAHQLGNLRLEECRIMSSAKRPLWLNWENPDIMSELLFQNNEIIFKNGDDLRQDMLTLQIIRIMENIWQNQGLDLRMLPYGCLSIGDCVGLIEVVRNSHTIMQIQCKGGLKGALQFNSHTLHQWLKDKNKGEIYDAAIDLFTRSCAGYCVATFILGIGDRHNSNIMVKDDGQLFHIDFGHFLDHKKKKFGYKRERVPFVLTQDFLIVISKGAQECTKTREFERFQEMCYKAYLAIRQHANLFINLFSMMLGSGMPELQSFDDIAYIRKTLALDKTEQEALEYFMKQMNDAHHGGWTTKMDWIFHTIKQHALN
T4 sequence (P27986 whole entry partner, canonical isoform): as the sequence (P27986 whole entry partner, canonical isoform) above
Experimental: as §2, §3, §4

SMILES | melting point [°C] | IC50 [1] [µM] | IC50 [2] [µM] | also measured
COC(=O)c1sc2c(cnc3cc(OC)c(OC)cc32)c1NC(=O)c1ccccc1[N+](=O)[O-] [Example 20, Methyl 7,8-dimethoxy-3-(2-nitrobenzamido)thieno[3,2-c]quinoline-2-carboxylate] | 178 to 181 | 3 | 25 | 
N#Cc1sc2c(cnc3cc(F)c(F)cc32)c1N [Example 38, 3-Amino-7,8-difluorothieno[3,2-c]quinoline-2-carbonitrile] | 300 to 301 | 25 | 25 | 
COc1cc2ncc3c(N)c(C#N)sc3c2cc1OC [Example 8, 3-Amino-7,8-dimethoxythieno[3,2-c]quinoline-2-carbonitrile] | 314 to 316 | 1 to 10 | 10 to 25 | 
COC(=O)c1sc2c(cnc3cc(OC)c(OC)cc32)c1NC(=O)C(=O)N1CCOCC1 [Example 26, Methyl 7,8-dimethoxy-3-(2-morpholino-2-oxoacetamido)thieno[3,2-c]quinoline-2-carboxylate] | 232 to 234 | 50 to 100 | 25 to 50 | 
COc1cc2ncc3c(N)c(C(C)=O)sc3c2cc1OC [Example 6, 1-(3-Amino-7,8-dimethoxythieno[3,2-c]quinolin-2-yl)ethanone] | 260 to 263 | 0.5 to 1 | 1 to 10 | 
N#Cc1sc2c(cnc3ccc(F)cc32)c1N [Example 36, 3-Amino-8-fluorothieno[3,2-c]quinoline-2-carbonitrile] | > 300 | 75 | 75 | 
COC(=O)c1sc2c(cnc3cc(OC)c(O)cc32)c1N [Example 10, Methyl 3-amino-8-hydroxy-7-methoxythieno[3,2-c]quinoline-2-carboxylate] | 277 to 280 | > 100 | > 100 | 
O=c1cc(N2CCOCC2)oc2c(-c3ccccc3)cccc12 [LY294002, 2-(4-morpholinyl)-8-phenyl-chromone, reference compound] |  |  |  | IC50 [3]: 0.32 µM
COC(=O)c1sc2c(cnc3cc(OC)c(OC)cc32)c1N [Example 1, Methyl 3-amino-7,8-dimethoxythieno[3,2-c]quinolone-2-carboxylate] | 260 to 262 | 0.15 | 0.6 | 
COC(=O)c1sc2c(cnc3cc(OC(=O)N4CCN(C)CC4)c(OC)cc32)c1N [Example 13, Methyl 3-amino-8-methoxy-7-[(4-methylpiperazine-1-carbonyl)oxy]thieno[3,2-c]quinoline-2-carboxylate] | 147 to 150 | 10 to 25 | 10 to 25 | 
COC(=O)c1sc2c(cnc3cc(OC)c(OC)cc32)c1NC(=O)c1ccc(Cl)c([N+](=O)[O-])c1 [Example 22, Methyl 3-(4-chloro-3-nitrobenzamido)-7,8-dimethoxythieno[3,2-c]quinoline-2-carboxylate] | 260 to 262 | 0.1 to 0.5 | 0.5 to 1 | 
COC(=O)c1sc2c(cnc3cc(OC)c(OC)cc32)c1NC(=O)c1ccc(F)cc1 [Example 18, Methyl 3-(4-fluorobenzamido)-7,8-dimethoxythieno[3,2-c]quinoline-2-carboxylate] | 196 to 198 | 0.15 | 2.5 | IC50 ([4]; 10 μM PIP2, 10 μM ATP, HTRF, read-out: IC50 against PI3Kγ): 1.01 µM; IC50 ([4]; Table 2, read-out: IC50 against PI3Kγ isoform): 1 µM; selective inhibition of the activity of PI3Kγ, in words ([4]; statement in description): selectively inhibits; IC50 ([5]; 10 μM PIP2, 10 μM ATP, HTRF, read-out: IC50 against PI3Kβ): 8.54 µM; inhibition of other isoforms of PI3K (PI3Kβ), in words ([5]; Table 2): does not inhibit; IC50 [3]: 25.7 µM; inhibition of other isoforms of PI3K (PI3Kδ), in words ([3]; Table 2): does not inhibit; IC50 ([6]; 10 μM PIP2, 10 μM ATP, HTRF, read-out: IC50 against PI3Kα): 25.3 µM; inhibition of other isoforms of PI3K (PI3Kα), in words ([6]; Table 2): does not inhibit
COc1ccc(C(=O)c2sc3c(cnc4ccc(F)cc43)c2N)cc1 [Example 41, (3-Amino-8-fluorothieno[3,2-c]quinolin-2-yl)(4-methoxyphenyl)methanone] | 256 to 258 | 0.6 | 10 | 
COC(=O)c1sc2c(cnc3cc(F)c(F)cc32)c1N [Example 35, Methyl 3-amino-7,8-difluorothieno[3,2-c]quinoline-2-carboxylate] | 298 to 300 | 10 | 10 | 
COC(=O)c1sc2c(cnc3cc(OC)c(OCCCN4CCOCC4)cc32)c1N [Example 15, Methyl 3-amino-7-methoxy-8-(3-morpholinopropoxy)thieno[3,2-c]quinoline-2-carboxylate] | 188 to 190 | 10 to 25 | 10 to 25 | 
COC(=O)c1sc2c(cnc3cc(OC)c(OC)cc32)c1NC(=O)C(=O)Nc1ccc(N2CCN(C)CC2)cc1 [Example 28, Methyl 7,8-dimethoxy-3-(2-{[4-(4-methylpiperazin-1-yl)phenyl]amino}-2-oxoacetamido)thieno[3,2-c]quinoline-2-carboxylate] | 240 to 246 | 1 to 10 | 10 to 25 | 
